Test results as given in ChEMBL document CHEMBL5346887, “Design and evaluation of dibenzoazepine-tetrahydroisoquinoline hybrids as potential P-glycoprotein inhibitors against multidrug resistant K562/A02 cells” (Eur J Med Chem, 2023).
pEC50, pIC50: −log10 of the molar value. Active and inactive are the calls of the source. The calls are words filed in the database; no cut-off is given here.

What was measured:
K562/A02 [1] = assay: Reversal of adriamycin resistance in human K562/A02 cells incubated for 48 hrs; format: functional, cell-based; details: K562/A02, 48 h
K562/A02 [2] = assay: Reversal fold, ratio of ADR IC50 to test compound IC50 for reversal of multi-drug resistance in human K562/A02 cells; format: functional
K562/A02 [3] = assay: Reversal fold, ratio of ADR IC50 to test compound IC50 for reversal of multi-drug resistance in human K562/A02 cells at 0.4 uM; format: functional
K562/A02 [4] = assay: Cytotoxicity against human K562/A02 cells assessed as inhibition of cell growth incubated for 72 hrs by CCK-8 assay; format: functional, cell-based; details: K562/A02, 72 h
K562 [5] = assay: cells; details: Homo sapiens, K562, 72 h
Description: Cytotoxicity against human K562 cells assessed as inhibition of cell growth incubated for 72 hrs by CCK-8 assay

K562/A02 [6] = assay: Antitumor activity against human K562/A02 cells xenografted in BALB/c nude mouse assessed as reduction in tumor volume at 2 mg/kg, ip measured upto 14 days by vernier caliper analysis; format: functional; details: time <= 14 day
[7] = molecular target: ATP-dependent translocase ABCB1 (Homo sapiens, UniProt P08183); assay: Binding affinity to p-gp in human K562/A02 cells assessed as increase in thermal stabilization at 50 uM incubated for 1 hr by CETSA analysis; format: cell-based; details: k562/a02, 1 h
K562/A02 [8] = assay: Antitumor activity against human K562/A02 cells xenografted in BALB/c nude mouse assessed as reduction in tumor volume at 20 mg/kg, ip measured upto 14 days by vernier caliper analysis; format: functional; details: time <= 14 day
K562/A02 [9] = assay: Effect on P-gp expression in human K562/A02 cells at 0.5 to 8 uM measured after 24 hrs by Western blot analysis; format: functional, cell-based; details: dose 0.5-8 µM
K562/A02 [10] = assay: Antitumor activity against human K562/A02 cells xenografted in BALB/c nude mouse assessed as reduction in tumor weight at 20 mg/kg, ip measured upto 14 days in presence of ADR by vernier caliper analysis; format: functional, organism-based; details: time <= 14.0 day
K562/A02 [11] = assay: Reversal of multi-drug resistance in human K562/A02 cells increase in intracellular Rh123 level incubated for 30 mins by flow cytometry analysis; format: functional, cell-based; details: dose 0.5-8 µM
K562/A02 [12] = assay: Antitumor activity against human K562/A02 cells xenografted in BALB/c nude mouse assessed as reduction in tumor volume at 20 mg/kg, ip measured upto 14 days in presence of ADR by vernier caliper analysis; format: functional; details: time <= 14 day
Cytochrome P450 3A4 = Cytochrome P450 3A4 (Homo sapiens, UniProt P08684); assay: Inhibition of CYP3A4 (unknown origin) using luciferin-IPA as substrate preincubated for 1 hr followed by substrate addition and measured after 1 hr by luminometer assay; format: ADME
K562 [13] = assay: Reversal of multi-drug resistance in human K562 cells increase in intracellular Rh123 level at 0.5 to 8 uM incubated for 30 mins by flow cytometry analysis; format: functional, cell-based; details: dose 0.5-8 µM

Chain of ATP-dependent translocase ABCB1 (P08183 whole entry): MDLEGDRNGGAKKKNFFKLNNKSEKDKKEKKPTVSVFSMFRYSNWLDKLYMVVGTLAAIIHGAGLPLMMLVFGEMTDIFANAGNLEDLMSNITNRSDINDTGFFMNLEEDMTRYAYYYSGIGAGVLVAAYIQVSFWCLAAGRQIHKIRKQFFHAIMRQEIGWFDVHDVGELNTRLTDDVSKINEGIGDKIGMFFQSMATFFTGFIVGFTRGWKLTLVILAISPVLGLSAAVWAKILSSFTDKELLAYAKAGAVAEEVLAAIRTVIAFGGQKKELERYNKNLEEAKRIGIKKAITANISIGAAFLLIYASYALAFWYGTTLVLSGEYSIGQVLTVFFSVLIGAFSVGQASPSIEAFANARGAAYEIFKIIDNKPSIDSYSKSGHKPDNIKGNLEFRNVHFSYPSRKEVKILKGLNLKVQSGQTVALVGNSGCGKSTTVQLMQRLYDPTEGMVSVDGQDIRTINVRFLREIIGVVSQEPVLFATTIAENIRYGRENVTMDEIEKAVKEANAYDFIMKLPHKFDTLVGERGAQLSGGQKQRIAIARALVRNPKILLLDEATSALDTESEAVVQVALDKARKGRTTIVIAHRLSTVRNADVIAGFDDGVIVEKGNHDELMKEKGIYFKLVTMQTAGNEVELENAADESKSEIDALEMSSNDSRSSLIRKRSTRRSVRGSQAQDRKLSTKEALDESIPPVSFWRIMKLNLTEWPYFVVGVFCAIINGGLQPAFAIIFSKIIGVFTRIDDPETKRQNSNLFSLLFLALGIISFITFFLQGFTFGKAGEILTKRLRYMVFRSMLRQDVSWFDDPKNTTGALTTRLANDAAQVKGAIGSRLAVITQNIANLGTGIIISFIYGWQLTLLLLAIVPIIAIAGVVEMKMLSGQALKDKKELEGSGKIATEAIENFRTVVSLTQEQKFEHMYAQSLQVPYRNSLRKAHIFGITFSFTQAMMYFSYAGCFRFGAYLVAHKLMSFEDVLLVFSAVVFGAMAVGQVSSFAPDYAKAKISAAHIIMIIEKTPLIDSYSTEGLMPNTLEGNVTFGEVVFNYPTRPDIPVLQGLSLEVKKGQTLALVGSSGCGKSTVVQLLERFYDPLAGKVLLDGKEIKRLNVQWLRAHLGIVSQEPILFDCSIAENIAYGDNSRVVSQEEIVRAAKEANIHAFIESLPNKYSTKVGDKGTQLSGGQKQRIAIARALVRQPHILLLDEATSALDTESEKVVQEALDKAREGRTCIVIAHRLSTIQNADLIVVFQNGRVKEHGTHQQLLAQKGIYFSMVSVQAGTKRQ
Chain of Cytochrome P450 3A4 (P08684 whole entry): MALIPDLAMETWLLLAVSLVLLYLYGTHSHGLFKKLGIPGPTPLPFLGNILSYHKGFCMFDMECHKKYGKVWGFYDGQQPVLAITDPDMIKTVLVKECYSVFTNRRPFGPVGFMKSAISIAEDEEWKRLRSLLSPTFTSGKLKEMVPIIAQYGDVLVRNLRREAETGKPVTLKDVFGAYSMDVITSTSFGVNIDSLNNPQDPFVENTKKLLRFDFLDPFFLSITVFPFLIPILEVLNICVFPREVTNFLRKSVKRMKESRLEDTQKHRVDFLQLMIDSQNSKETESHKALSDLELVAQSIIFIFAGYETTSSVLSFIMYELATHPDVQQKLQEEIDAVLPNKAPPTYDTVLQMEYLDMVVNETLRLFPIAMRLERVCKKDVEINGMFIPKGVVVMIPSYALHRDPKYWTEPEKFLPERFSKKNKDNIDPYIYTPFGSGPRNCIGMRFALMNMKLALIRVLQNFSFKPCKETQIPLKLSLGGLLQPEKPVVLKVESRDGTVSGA

Compound | Ratio IC50 (K562/A02 [2]) | Ratio IC50 (K562/A02 [3]) | pIC50 (K562/A02 [4]) | further results
COc1cc2c(c3c1OCO3)-c1c(cc(OC)c3c1OCO3)CN(CCc1ccc3c(c1)OCO3)C2 | 20.58 | 12.78 | – | pEC50 (K562/A02 [1]): 6.91
COc1cc2c(c3c1OCO3)-c1c(cc(OC)c3c1OCO3)CN(c1ccc(CN3CCCCC3)cc1)C2 | 113.14 | 21.82 | 4.71 | –
COc1cc2c(cc1OC)CN(CCCCCCN1Cc3cc(OC)c4c(c3-c3c(cc(OC)c5c3OCO5)C1)OCO4)CC2 | – | 8.24 | 5.69 | –
COc1cc2c(cc1OC)CN(CCCN1Cc3cc(OC)c4c(c3-c3c(cc(OC)c5c3OCO5)C1)OCO4)CC2 | 2.01 | – | 4.78 | –
COc1cc2c(c3c1OCO3)-c1c(cc(OC)c3c1OCO3)CN(c1ccc(CCN3CCOCC3)cc1)C2 | 16.7 | – | 5.18 | –
COc1ccc(C(=O)Nc2ccccc2C(=O)Nc2ccc(CCN3CCc4cc(OC)c(OC)cc4C3)cc2)cc1OC | 81.9 | – | 5.04 | pEC50 (K562/A02 [1]): 7.52
COc1cccc2c1C(=O)c1c(O)c3c(c(O)c1C2=O)C[C@@](O)(C(=O)CO)C[C@@H]3O[C@H]1C[C@H](N)[C@H](O)[C@H](C)O1.Cl [DOXORUBICIN HYDROCHLORIDE] | – | – | 5.62 | pIC50 (K562 [5]): 9.00; Activity (K562/A02 [6]): 526.45 mm3
COc1ccc2c(c1)CCN(CCCN1Cc3cc(OC)c4c(c3-c3c(cc(OC)c5c3OCO5)C1)OCO4)C2 | – | 1.67 | 5.27 | –
COc1cc2c(cc1OC)CN(CCc1ccccc1N1Cc3cc(OC)c4c(c3-c3c(cc(OC)c5c3OCO5)C1)OCO4)CC2 | 0.85 | – | < 4.00 | –
COc1cc2c(cc1OC)CN(Cc1ccc(N3Cc4cc(OC)c5c(c4-c4c(cc(OC)c6c4OCO6)C3)OCO5)cc1)CC2 | 374.09 | 46.82 | 4.87 | –
COc1cc2c(cc1OC)CN(CCc1ccc(N3Cc4cc(OC)c5c(c4-c4c(cc(OC)c6c4OCO6)C3)OCO5)cc1)CC2 | 93.17 | 93.17 | 4.02 | pEC50 (K562/A02 [1]): 7.31; Activity [7]: Active; Activity (K562/A02 [8]): 525.75 mm3; Activity (K562/A02 [9]): inactive; Activity (K562/A02 [10]): Active; Activity (K562/A02 [11]): Dose-Dependent Effect; Activity (K562/A02 [12]): 158.27 mm3; pIC50 (Cytochrome P450 3A4): 5.58; Activity (K562 [13]): Active
COc1cc2c(cc1OC)CN(CCN1Cc3cc(OC)c4c(c3-c3c(cc(OC)c5c3OCO5)C1)OCO4)CC2 | 4.29 | – | 5.11 | –
COc1cc2c(c3c1OCO3)-c1c(cc(OC)c3c1OCO3)CN(c1ccc(CCN3CCNCC3)cc1)C2 | – | 14.23 | 5.33 | –
COc1cc2c(c3c1OCO3)-c1c(cc(OC)c3c1OCO3)CN(c1ccc(CCN3CCCCC3)cc1)C2 | – | 12.52 | 5.49 | –
COc1ccc2c(c1)CCN(CCN1Cc3cc(OC)c4c(c3-c3c(cc(OC)c5c3OCO5)C1)OCO4)C2 | – | 4.87 | 5.29 | –
COc1ccc2c(c1)CCN(CCCCCCN1Cc3cc(OC)c4c(c3-c3c(cc(OC)c5c3OCO5)C1)OCO4)C2 | 4.23 | – | < 4.00 | –
COc1ccc2c(c1)CCN(CCc1ccc(N3Cc4cc(OC)c5c(c4-c4c(cc(OC)c6c4OCO6)C3)OCO5)cc1)C2 | 8.61 | – | < 4.00 | –
